Reference: ChEMBL document CHEMBL3872201, “Synthesis and antiproliferative activity of a natural like glycoconjugate polycyclic compound” (2016)
Activity calls are given as the source filed them. The calls are words filed in the database; no cut-off is given here.

Key:
[1] = Antiproliferative activity against human SW620 cells after 48 hrs by sulforhodamine B assay; assay type: functional; conditions: SW-620, 48 h
[2] = Cell cycle arrest in human MDA-MB-231 cells assessed as accumulation at G2/M phase at 10 uM after 48 hrs by propidium iodide staining based flow cytometric analysis (reference value: 19.5%); assay type: functional
[3] = Antiproliferative activity against human ACHN cells after 48 hrs by sulforhodamine B assay; assay type: functional
[4] = Antiproliferative activity against human MDA-MB-468 cells after 48 hrs by sulforhodamine B assay; assay type: functional; conditions: MDA-MB-468, 48 h
[5] = Antiproliferative activity against human SR cells after 48 hrs by sulforhodamine B assay; assay type: functional
[6] = Antiproliferative activity against human DU145 cells after 48 hrs by sulforhodamine B assay; assay type: functional; conditions: DU-145, 48 h
MDA-MB-231 [7] = assay: Effect on cell cycle regulatory protein in human MDA-MB-231 cells assessed as p21 level at 5 uM after 24 hrs by Western blot analysis relative to control; assay type: functional
[8] = Antiproliferative activity against human HCT116 cells after 48 hrs by sulforhodamine B assay; assay type: functional; conditions: HCT-116, 48 h
MDA-MB-231 [9] = assay: Cytotoxicity against human MDA-MB-231 cells assessed as inhibition of cell viability at 5 to 10 uM up to 72 hrs by MTT assay; assay type: functional, cell-based
[10] = Cell cycle arrest in human MDA-MB-231 cells assessed as accumulation at G2/M phase at 10 uM after 24 hrs by propidium iodide staining based flow cytometric analysis (reference value: 20.4%); assay type: functional
[11] = Cell cycle arrest in human MDA-MB-231 cells assessed as accumulation at G2/M phase at 5 uM after 24 hrs by propidium iodide staining based flow cytometric analysis (reference value: 20.4%); assay type: functional
[12] = Antiproliferative activity against human BT549 cells after 48 hrs by sulforhodamine B assay; assay type: functional; conditions: BT-549, 48 h
[13] = Antiproliferative activity against human NCI-H322M cells after 48 hrs by sulforhodamine B assay; assay type: functional
[14] = Antiproliferative activity against human A549/ATCC cells after 48 hrs by sulforhodamine B assay; assay type: functional; conditions: A549, 48 h
MDA-MB-231 [15] = assay: Effect on cell cycle regulatory protein in human MDA-MB-231 cells assessed as p21 level at 10 uM after 48 hrs by Western blot analysis relative to control; assay type: functional
[16] = Antiproliferative activity against human HCC2998 cells after 48 hrs by sulforhodamine B assay; assay type: functional; conditions: HCC 2998, 48 h
[17] = Antiproliferative activity against human TK10 cells after 48 hrs by sulforhodamine B assay; assay type: functional; conditions: TK-10, 48 h
[18] = Antiproliferative activity against human MDA-MB-435 cells after 48 hrs by sulforhodamine B assay; assay type: functional; conditions: MDA-MB-435, 48 h
[19] = Cell cycle arrest in human MDA-MB-231 cells assessed as accumulation at G0/G1 phase at 5 uM after 72 hrs by propidium iodide staining based flow cytometric analysis (reference value: 69.3%); assay type: functional
[20] = Cell cycle arrest in human MDA-MB-231 cells assessed as accumulation at subG0/G1 phase at 5 uM after 48 hrs by propidium iodide staining based flow cytometric analysis (reference value: 8.8%); assay type: functional
[21] = Cytotoxicity against human MDA-MB-231 cells assessed as inhibition of cell viability at 5 uM after 48 hrs by MTT assay relative to control; assay type: functional; conditions: MDA-MB-231, 48 h
[22] = Antiproliferative activity against human SN12C cells after 48 hrs by sulforhodamine B assay; assay type: functional
[23] = Antiproliferative activity against human HCT15 cells after 48 hrs by sulforhodamine B assay; assay type: functional; conditions: HCT-15, 48 h
[24] = Cell cycle arrest in human MDA-MB-231 cells assessed as accumulation at G0/G1 phase at 5 uM after 48 hrs by propidium iodide staining based flow cytometric analysis (reference value: 67%); assay type: functional
[25] = Cell cycle arrest in human MDA-MB-231 cells assessed as accumulation at G0/G1 phase at 10 uM after 24 hrs by propidium iodide staining based flow cytometric analysis (reference value: 66.5%); assay type: functional
[26] = Cell cycle arrest in human MDA-MB-231 cells assessed as accumulation at subG0/G1 phase at 10 uM after 72 hrs by propidium iodide staining based flow cytometric analysis (reference value: 6.3%); assay type: functional
MDA-MB-231 [27] = assay: Effect on cell cycle regulatory protein in human MDA-MB-231 cells assessed as cdc2 level at 10 uM after 24 hrs by Western blot analysis relative to control; assay type: functional
[28] = Antiproliferative activity against human RPMI8226 cells after 48 hrs by sulforhodamine B assay; assay type: functional; conditions: RPMI-8226, 48 h
[29] = Antiproliferative activity against human KM12 cells after 48 hrs by sulforhodamine B assay; assay type: functional; conditions: KM12, 48 h
MDA-MB-231 [30] = assay: Effect on cell cycle regulatory protein in human MDA-MB-231 cells assessed as cdc2 level at 5 uM after 24 hrs by Western blot analysis relative to control; assay type: functional
[31] = Antiproliferative activity against human Hs 578T cells after 48 hrs by sulforhodamine B assay; assay type: functional
[32] = Antiproliferative activity against human HT-29 cells after 48 hrs by sulforhodamine B assay; assay type: functional; conditions: HT-29, 48 h
[33] = Antiproliferative activity against human HOP62 cells after 48 hrs by sulforhodamine B assay; assay type: functional; conditions: HOP-62, 48 h
[34] = Antiproliferative activity against human UACC257 cells after 48 hrs by sulforhodamine B assay; assay type: functional; conditions: UACC-257, 48 h
[35] = Antiproliferative activity against human MALME-3M cells after 48 hrs by sulforhodamine B assay; assay type: functional
[36] = read-out: LC50 (the source's name)

Q: With C=C1c2c(C)nn(-c3ccc(C#CCO[C@@H]4O[C@H](CO)[C@@H](O)[C@H](O)[C@H]4O)cc3)c2N(C)C23CC1C1(C)c4c(C)nn(-c5ccc(C#CCO[C@@H]6O[C@H](CO)[C@@H](O)[C@H](O)[C@H]6O)cc5)c4N(C)C(C)(CC12)C3 (stereo not given in full) as the compound, how does the GI50 [1] read?
A: 1.72 µM

Q: And the TGI [1]?
A: 3.77 µM

Q: And the CC50 [1, 36]?
A: 8.29 µM

Q: What about the Activity [2] of the same compound?
A: 31.1%

Q: And the GI50 [3]?
A: 2.42 µM

Q: What about the TGI [3] of the same compound?
A: 10.6 µM

Q: And the CC50 [3, 36]?
A: 32.5 µM

Q: And the GI50 [4]?
A: 1.34 µM

Q: And the TGI [4]?
A: 2.73 µM

Q: And the CC50 [4, 36]?
A: 5.57 µM

Q: What about the GI50 [5] of the same compound?
A: 3.28 µM

Q: And the TGI [5]?
A: 100 µM

Q: And the CC50 [5, 36]?
A: 100 µM

Q: What about the GI50 [6] of the same compound?
A: 1.97 µM

Q: What about the TGI [6] of the same compound?
A: 5.16 µM

Q: What about the CC50 [6, 36] of the same compound?
A: 17.3 µM

Q: And the “fold change (FC)” value (MDA-MB-231 [7])?
A: 0.1

Q: What about the GI50 [8] of the same compound?
A: 1.27 µM

Q: What about the TGI [8] of the same compound?
A: 2.97 µM

Q: What about the inhibition (MDA-MB-231 [9]) of the same compound?
A: Active

Q: And the Activity [10]?
A: 36.6%

Q: And the Activity [11]?
A: 24.4%

Q: And the GI50 [12]?
A: 1.3 µM

Q: And the TGI [12]?
A: 2.97 µM

Q: And the CC50 [12, 36]?
A: 6.77 µM

Q: What about the GI50 [13] of the same compound?
A: 1.76 µM

Q: And the TGI [13]?
A: 3.75 µM

Q: What about the CC50 [13, 36] of the same compound?
A: 8.01 µM

Q: And the GI50 [14]?
A: 1.68 µM

Q: And the TGI [14]?
A: 4.09 µM

Q: What about the CC50 [14, 36] of the same compound?
A: 9.98 µM

Q: And the “fold change (FC)” value (MDA-MB-231 [15])?
A: 2

Q: And the GI50 [16]?
A: 1.57 µM

Q: And the TGI [16]?
A: 3.15 µM

Q: What about the CC50 [16, 36] of the same compound?
A: 6.32 µM

Q: What about the GI50 [17] of the same compound?
A: 2.01 µM

Q: What about the TGI [17] of the same compound?
A: 4.04 µM

Q: And the CC50 [17, 36]?
A: 8.09 µM

Q: What about the GI50 [18] of the same compound?
A: 1.67 µM

Q: And the TGI [18]?
A: 3.77 µM

Q: And the CC50 [18, 36]?
A: 8.5 µM

Q: What about the Activity [19] of the same compound?
A: 74%

Q: And the Activity [20]?
A: 2.1%

Q: And the inhibition at 5 µM [21]?
A: 68%

Q: And the GI50 [22]?
A: 1.38 µM

Q: And the TGI [22]?
A: 3.72 µM

Q: And the CC50 [22, 36]?
A: 9.99 µM

Q: What about the GI50 [23] of the same compound?
A: 1.57 µM

Q: And the TGI [23]?
A: 3.45 µM

Q: What about the Activity [24] of the same compound?
A: 64.3%

Q: And the Activity [25]?
A: 52%

Q: And the Activity [26]?
A: 1.6%

Q: And the “fold change (FC)” value (MDA-MB-231 [27])?
A: 0.8

Q: What about the GI50 [28] of the same compound?
A: 0.29 µM

Q: And the TGI [28]?
A: 1.72 µM

Q: What about the CC50 [28, 36] of the same compound?
A: 100 µM

Q: What about the GI50 [29] of the same compound?
A: 1.44 µM

Q: And the TGI [29]?
A: 2.9 µM

Q: What about the CC50 [29, 36] of the same compound?
A: 5.84 µM

Q: What about the “fold change (FC)” value (MDA-MB-231 [30]) of the same compound?
A: 0.9

Q: What about the GI50 [31] of the same compound?
A: 0.47 µM

Q: And the TGI [31]?
A: 9.85 µM

Q: What about the CC50 [31, 36] of the same compound?
A: 100 µM

Q: And the GI50 [32]?
A: 1.63 µM

Q: And the TGI [32]?
A: 4.21 µM

Q: What about the CC50 [32, 36] of the same compound?
A: 16.1 µM

Q: What about the GI50 [33] of the same compound?
A: 1.49 µM

Q: And the TGI [33]?
A: 2.88 µM

Q: And the CC50 [33, 36]?
A: 5.57 µM

Q: And the GI50 [34]?
A: 1.82 µM

Q: What about the TGI [34] of the same compound?
A: 4.56 µM

Q: And the CC50 [34, 36]?
A: 15.4 µM

Q: What about the GI50 [35] of the same compound?
A: 1.87 µM

Q: What about the TGI [35] of the same compound?
A: 3.66 µM

Q: And the CC50 [35, 36]?
A: 7.17 µM
